ChEMBL document CHEMBL1201862, “PubChem BioAssay data set” (2004)
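Assay format: 96-well plates, 48-hour exposure. GI50 marks 50% less growth.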 Calls of active or inactive are those of the source. Cut-off read from the data, not from the text of the source: active = GI50 up to about 1.1 µM and inactive = higher.

Legend:
Assay in all cases: inhibition of tumour cell growth, NCI panel, 48 h
OVCAR-8 = test system: OVCAR-8
EKVX = test system: EKVX
KM12 = test system: KM12
OVCAR-5 = test system: OVCAR-5
SK-MEL-5 = test system: SK-MEL-5
HOP-92 = test system: HOP-92
UACC-257 = test system: UACC-257
UACC-62 = test system: UACC-62
SK-MEL-2 = test system: SK-MEL-2
NCI-H23 = test system: NCI-H23
IGROV-1 = test system: IGROV-1
SNB-19 = test system: SNB-19
HCT-116 = test system: HCT-116
ACHN = test system: ACHN
A549 = test system: A549
HCT-15 = test system: HCT-15
SNB-75 = test system: SNB-75
HT-29 = test system: HT-29
MDA-MB-435 = test system: MDA-MB-435
K562 = test system: K562
LOX IMVI = test system: LOX IMVI
M14 = test system: M14
NCI/ADR-RES = test system: NCI/ADR-RES
MCF7 = test system: MCF7
HL-60 = test system: HL-60
MDA-MB-231 = test system: MDA-MB-231
SF-539 = test system: SF-539
Hs-578T = test system: Hs-578T
SF-295 = test system: SF-295
COLO 205 = test system: COLO 205
NCI-H522 = test system: NCI-H522
U-251 = test system: U-251
SW-620 = test system: SW-620
HCC 2998 = test system: HCC 2998
PC-3 = test system: PC-3
NCI-H460 = test system: NCI-H460
MDA-N = test system: MDA-N
MOLT-4 = test system: MOLT-4
CCRF-CEM = test system: CCRF-CEM
RPMI-8226 = test system: RPMI-8226
OVCAR-4 = test system: OVCAR-4
RXF 393 = test system: RXF 393
NCI-H226 = test system: NCI-H226
OVCAR-3 = test system: OVCAR-3
SF-268 = test system: SF-268
Malme-3M = test system: Malme-3M
UO-31 = test system: UO-31
SN12C = test system: SN12C
HOP-62 = test system: HOP-62
CAKI-1 = test system: CAKI-1
786-0 = test system: 786-0
SK-OV-3 = test system: SK-OV-3
DU-145 = test system: DU-145
SK-MEL-28 = test system: SK-MEL-28
BT-549 = test system: BT-549
TK-10 = test system: TK-10

## Cn1cnc2c(OCC3CCCCC3)nc(N)nc21
OVCAR-8
  GI50: > 100 µM (inactive)
EKVX
  GI50: > 100 µM (inactive)
KM12
  GI50: > 100 µM (inactive)
OVCAR-5
  GI50: > 100 µM (inactive)
SK-MEL-5
  GI50: 70.6 µM (inactive)
HOP-92
  GI50: 32.4 µM (inactive)
UACC-257
  GI50: > 100 µM (inactive)
UACC-62
  GI50: > 100 µM (inactive)
SK-MEL-2
  GI50: > 100 µM (inactive)
NCI-H23
  GI50: > 100 µM (inactive)
IGROV-1
  GI50: 36.5 µM (inactive)
SNB-19
  GI50: > 100 µM (inactive)
HCT-116
  GI50: > 100 µM (inactive)
ACHN
  GI50: < 0.01 µM (active)
A549
  GI50: > 100 µM (inactive)
HCT-15
  GI50: > 100 µM
SNB-75
  GI50: 36.3 µM (inactive)
HT-29
  GI50: 73.8 µM (inactive)
MDA-MB-435
  GI50: > 100 µM (inactive)
K562
  GI50: > 100 µM (inactive)
LOX IMVI
  GI50: 66.1 µM (inactive)
M14
  GI50: > 100 µM (inactive)
NCI/ADR-RES
  GI50: > 100 µM (inactive)
MCF7
  GI50: 11.7 µM (inactive)
HL-60
  GI50: > 100 µM (inactive)
MDA-MB-231
  GI50: > 100 µM (inactive)
SF-539
  GI50: > 100 µM (inactive)
Hs-578T
  GI50: > 100 µM (inactive)
SF-295
  GI50: > 100 µM (inactive)
COLO 205
  GI50: > 100 µM (inactive)
NCI-H522
  GI50: > 100 µM (inactive)
U-251
  GI50: > 100 µM (inactive)
SW-620
  GI50: > 100 µM (inactive)
HCC 2998
  GI50: > 100 µM (inactive)
PC-3
  GI50: > 100 µM (inactive)
NCI-H460
  GI50: > 100 µM (inactive)
MDA-N
  GI50: > 100 µM (inactive)
MOLT-4
  GI50: > 100 µM (inactive)
CCRF-CEM
  GI50: > 100 µM (inactive)
RPMI-8226
  GI50: > 100 µM (inactive)
OVCAR-4
  GI50: > 100 µM (inactive)
RXF 393
  GI50: > 100 µM (inactive)
NCI-H226
  GI50: 44.1 µM (inactive)
OVCAR-3
  GI50: > 100 µM (inactive)
SF-268
  GI50: > 100 µM (inactive)
Malme-3M
  GI50: > 100 µM (inactive)
UO-31
  GI50: 72.9 µM (inactive)
SN12C
  GI50: > 100 µM (inactive)
HOP-62
  GI50: > 100 µM (inactive)
CAKI-1
  GI50: > 100 µM (inactive)
786-0
  GI50: > 100 µM (inactive)
SK-OV-3
  GI50: > 100 µM (inactive)
DU-145
  GI50: > 100 µM (inactive)
SK-MEL-28
  GI50: > 100 µM (inactive)
BT-549
  GI50: > 100 µM (inactive)
TK-10
  GI50: > 100 µM (inactive)
